Laboratory results: US4299970A, “Oxy-alkylamino carboxylic esters” (Beecham Group Limited, priority 1974, dated 1981)
In brackets after ≈: the same amount, converted by molar mass. Where two headings read alike, the source gives them in different places. One block for each molecule: values may come before it.

Legend:
[1] = tested on: guinea pig platelet aggregation induced by ADP; experiment: inhibition of guinea pig platelet aggregation induced in vitro by ADP; format: cell-based; conditions: Cavia porcellus, ADP 5.45×10^-7 M, platelet rich plasma, 37° C.
Method: a. The compounds were examined for their ability to inhibit guinea pig platelet aggregation induced, in vitro, by 5.45×10^-7 M adenosine diphosphate (ADP).
The method consisted of diluting the compound immediately before use from a 10 mg/ml solution in ethanol to a 1 mg/ml solution with saline and then adding the appropriate volume to 0.5 ml of platelet rich plasma. The mixture was stirred at 37° C. for 1 minute before 25 μl of an ADP solution was added to give a final ADP concentration of 5.45×10^-7 M. The aggregation response was then recorded relative to the control.

[2] = tested on: 5-hydroxy-tryptamine-induced bronchoconstriction; experiment: inhibition of 5-hydroxytryptamine-induced bronchoconstriction (Konsett-Rossler preparation); format: in vivo, guinea pig; conditions: Cavia porcellus; intravenous, 2 minutes prior to 5-hydroxytryptamine dose
Method: a. The compounds were examined for their ability to inhibit 5-hydroxy-tryptamine-induced bronchoconstriction in the anaesthetised, artifically respired guinea pig (Konsett-Rossler preparation).
H. Konsett and R. Rossler, (1940), Naunyn-Schneidebergs Arch. Exp. Path. Pharmak., 195, 71.
After preparation of the guinea pig, a dose of 5-hydroxytryptamine producing an adequate response was determined by dosing, i.v., every 6 minutes. This dose was usually 10 μg. After a standard response was obtained, compounds were given intra-venously 2 minutes prior to the next standard dose and dosing of 5-hydroxytryptamine was continued every 6 minutes until the response returned to control values.

[3] = tested on: pentagastrin-stimulated gastric acid secretion; experiment: inhibition of pentagastrin-stimulated gastric acid secretion, anaesthetised perfused rat stomach (Ghosh and Schild preparation); format: in vivo; conditions: intravenous
Source text: a. The compounds were examined for their ability to inhibit pentagastrin-stimulated gastric acid secretion in the anaesthetised, perfused rat stomach preparation (Ghosh and Schild preparation).
M. N. Ghosh and H. O. Schild, (1958), Brit. J. Pharmacol, 13, 54.
The compounds were given intravenously.

arterial blood pressure = experiment: effect on arterial blood pressure in the anaesthetised, normotensive rat; format: in vivo; conditions: intravenous, dose range 0.001 → 1.0 mg/kg
Method: a. The effect of the compounds on arterial blood pressure was determined in the anaesthetised, normotensive rat. The rat preparation was similar to that desribed in "Pharmacological experiments on intact preparations", E. and S. Livingstone, Edinburgh and London, 1970, p. 63.
The active compounds were predominantly depressor agents in the normotensive rat.

gastric acid secretion = experiment: inhibition of gastric acid secretion in the pyloric ligated rat (Shay rat preparation); format: in vivo; conditions: for ED50: sc
Source text: b. The compounds were examined for their ability to inhibit gastric acid secretion in the pyloric ligated rat model (Shay rat preparation).
H. Shay, S. A. Komarov, S. S. Fels, D. Merance, M. Gruenstein and H. Siplet, (1945), Gastroenerology, 5, 43.

[4] = tested on: gastric acid secretion, stimulated by pentagastrin infusion; experiment: inhibition of pentagastrin-stimulated gastric acid secretion, chronic fistula rat preparation; format: in vivo; conditions: 2-5 mg/kg, s.c.
Source text: c. The compounds were examined for their ability to inhibit gastric acid secretion, stimulated by pentagastrin infusion, in the chronic fistula rat preparation.
P. H. Guth and R. Mendick, (1965), Amer. J. Gastroenterology, 44, 545.

[5] = tested on: indomethacin-induced ulcer; experiment: indomethacin-induced ulcer test in fasted rats; format: in vivo, rat; conditions: 20 mg/kg, s.c., twice; 5 hour test; indomethacin 50 mg/kg, i.p.
Method: d. Anti-ulcer activity was determined in a 5 hour indomethacin-induced (50 mg/kg, i.p.) ulcer test in fasted rats. Compound 63 inhibited ulceration by 71% when given at 20 mg/kg, s.c., twice during the course of the test.

[6] = tested on: histamine-induced asphyxic collapse; experiment: protection against aerosol administered, histamine-induced asphyxic collapse; format: in vivo, guinea pig
Source text: b. The compounds were examined for their ability to protect against aerosol administered, histamine-induced asphyxic collapse in guinea pigs.
M. A. Wasserman and R. L. Griffen, (1975), Am. Rev. Resp. Dis., 111, 946.

[7] = tested on: femoral artery of the hind limb; experiment: vasodilator activity in femoral artery of the hind limb (vascular resistance); format: in vivo, beagle dog; conditions: dose range of 0.01-1 mg/kg, intra-arterially
Method: (§1) b. The vasodilator activity of the compounds was determined in the femoral artery of the hind limb of the anaesthetised beagle dog. The method used was similar to that described by J. Nakano and J. R. McCurdy, (1967), J. Pharmac. Exp. Ther., 156, 538.
The compounds were administered into the iliac artery and the effects on both flow and pressure in the hind limb were recorded. Changes in vascular resistance (R) were calculated from the following expression: [formula]

[8] = tested on: total peripheral resistance; experiment: total peripheral resistance, intravenous; format: in vivo, beagle dog; conditions: dose range of 0.01-10 mg/kg, intra-venously
Method: as §1
In other experiments the compounds were administered into the left femoral vein and the right femoral arterial pressure and cardiac output were monitored. From these experiments, total peripheral resistance (TPR) was calculated from the expression: [formula]

gerbil colon = experiment: prostaglandin-like activity on the isolated perfused gerbil colon; conditions: De Jalon's saline, 32° C.
Method: (§2) The compounds were tested for prostaglandin-like and for prostaglandin antagonist activity on the isolated perfused gerbil colon preparation (smooth muscle). This has been shown by J. R. Weeks, J. R. Schultz and W. E. Brown, (1968), J. App. Physiol, 25, 783, to have greater precision and sensitivity than other preparations. A 15 mm portion of the descending colon is suspended in an organ bath and perfused with De Jalon's saline at 32° C. Compounds were given in a three minute cycle with a 45 second contact time and a 15 second washout time. Antagonist compounds were given with a one minute pre-contact time.
Prostaglandin-like activity was determined using the method of H. O. Schlid, (1942), J. Physiol., 101, 115, which is a standard 4×4 latin square assay. Some of the compounds stimulated the gerbil colon to contract which is a prostaglandin-like effect, and the results are shown in Table 15.

[9] = tested on: human platelet aggregation induced by collagen; experiment: inhibition of human platelet aggregation induced in vitro by collagen; format: cell-based; conditions: 10^-4 M, collagen, platelet rich plasma, 37° C.
Method: b. The compounds were examined for their ability to inhibit human platelet aggregation induced, in vitro, either by adenosine diphosphate (ADP) or collagen. The compounds were added in saline or dimethylformamide to platelet rich plasma at 37° C. to give a final concentration of 10^-4 M. After 3 minutes the platelets were challenged with ADP or collagen. The aggregation response was then recorded relative to the control.

[10] = tested on: gerbil colon; contraction to prostaglandin F2α; experiment: prostaglandin antagonist activity on the isolated perfused gerbil colon (contraction to prostaglandin F2α); conditions: Meriones unguiculatus; reduction of contraction to prostaglandin F2α; one minute pre-contact time
Method: as §2
Antagonist activity was determined by measuring the percentage reduction of the contraction to two standard doses of prostaglandin F2α which gave responses between 20% and 80% of maximum response.

antifertility activity = antifertility activity in female mice; format: in vivo; conditions: 50-100 mg/kg, s.c.; 5 days pre-coitally and 10 days post-coitally
Method: Antifertility activity was determined by subcutaneous dosing of female mice for 5 days pre-coitally and 10 days post-coitally. Three female mice per group were used and these were mated with males of proven fertility and mating confirmed by examination for copulation plugs.

[11] = subcutaneously twice, 3 hour Shay rat preparation

Compound: CCCCCCC(C)(O)CCN1C(=O)CCC(=O)C1CCCCCCC(=O)OCC (stereo not shown) [Compound 56]
- IC50 [1]: 51 µM

Compound: CCCCCCCC(C)(O)CCN1C(=O)CCC(=O)C1CCCCCCC(=O)OCC (stereo not shown) [Compound 57, 2-(6'-Ethoxycarbonyl-n-hexyl)-1-(3"-hydroxy-3"-methyl-n-decyl)-piperidin-3,6-dione]
- ED50 [2]: 0.253 mg/kg

Compound: CCCCCC(C)C(C)(O)CCN1C(=O)CCC(=O)C1CCCCCCC(=O)OCC (stereo not shown) [Compound 60]
- ED50 [3]: 1 mg/kg
- IC50 [1]: 11 µM

Compound: CCCCCC(C)(O)CCN1C(=O)CC(=O)C1CCCCCCC(=O)OCC (stereo not shown) [Compound 62, 2-(6'-Ethoxycarbonyl-n-hexyl)-1-(3"-hydroxy-3"-methyl-n-octyl)-pyrrolidin-3,5-dione]
- ED50 [3]: 0.72 mg/kg
- ED50 [2]: 0.088 mg/kg
- % Depression at 1 mg/kg (arterial blood pressure): 70%
- IC50 [1]: 20 µM

Compound: CCCCCCC(C)(O)CCN1C(=O)CC(=O)C1CCCCCCC(=O)OCC (stereo not shown) [Compound 63, 2-(6'-Ethoxycarbonyl-n-hexyl)-1-(3"-hydroxy-3"-methyl-n-nonyl)-pyrrolidin-3,5-dione]
- ED50 [3]: 0.09 mg/kg
- activity when given intraduodenally (gastric acid secretion; intraduodenally, Shay rat preparation): active
- ED50 (gastric acid secretion; subcutaneously once, 3 hour Shay rat preparation, at the time of ligation, read-out: ED50, given once): 5.3 mg/kg
- ED50 (gastric acid secretion; subcutaneously twice, 3 hour Shay rat preparation, at time of ligation and 1.5 hours after, read-out: ED50, given twice): 2.25 mg/kg
- H^+ concentration (gastric acid secretion; [11]): decreasing the H^+ concentration
- total titratable acidity in the stomach (gastric acid secretion; [11]): lowered the total titratable acidity in the stomach
- volume of secretion (gastric acid secretion; [11]): inhibiting the volume of secretion
- inhibiting acid secretion [4]: very effective
- inhibition of ulceration [5]: 71%
- ED50 [2]: 0.008 mg/kg
- protecting against histamine challenge [6]: very effective
- % Depression at 1 mg/kg (arterial blood pressure): 60%
- vascular resistance [7]: decreased vascular resistance
- total peripheral resistance (TPR) [8]: decreased total peripheral resistance
- IC50 [1]: 1.3 µM

Compound: CCOC(=O)CCCCCCC1C(=O)CCC(=O)N1CCCO (stereo not shown) [Compound 74]
- Concentration/ml. for contractions (gerbil colon): 4 to 8 µg/mL

Compound: CCCCCC(O)CCN1C(=O)CC(=O)C1CCCCCCC(=O)OCC (stereo not shown) [Compound 75, 2-(6'-ethoxycarbonyl-n-hexyl)-1-(3"-hydroxy-n-octyl)-pyrrolidin-3,5-dione]
- inhibition at 100 µM [9]: 61%
- Concentration/ml. for contractions (gerbil colon): 0.2 to 0.5 µg/mL

Compound: CCCCCCC(O)CCN1C(=O)CCC(=O)C1CCCCCCC(=O)OCC (stereo not shown) [Compound 78]
- % Depression at 1 mg/kg (arterial blood pressure): 30%
- inhibition at 100 µM [9]: 65%

Compound: CCCCCC(O)CCN1CCCC(O)C1CCCCCCCO (stereo not shown) [Compound 100]
- Concentration/ml. for contractions (gerbil colon): 0.01 to 0.02 µg/mL

Compound: CCCCCC(CCN1CCC(O)C1CCCCCCCO)OCc1ccccc1 (stereo not shown) [Compound 101]
- Concentration/ml. for contractions (gerbil colon): 0.04 to 0.10 µg/mL

Compound: CCCCCC(O)CCN1CCC(O)C1CCCCCCCO (stereo not shown) [Compound 102]
- inhibition at 100 µM [9]: 71%
- Concentration/ml. for contractions (gerbil colon): 0.04 to 0.10 µg/mL

Compound: CCCCCCC(O)CCN1CCCC(O)C1CCCCCCCO (stereo not shown) [Compound 105]
- % Depression at 1 mg/kg (arterial blood pressure): 20%
- inhibition at 100 µM [9]: 78%

Compound: CCCCCCC(O)CCN1CCC(O)C1CCCCCCCO (stereo not shown) [Compound 108]
- antifertility activity (antifertility activity): active

Compound: CCCCCCCCN1CCCC(O)C1CCCCCCC (stereo not shown) [Compound 112, 2-n-heptyl-3-hydroxy-1-n-octyl-piperidine]
- vascular resistance [7]: decreased vascular resistance
- total peripheral resistance (TPR) [8]: decreased total peripheral resistance
- inhibition at 100 µM [9]: 77%
- antifertility activity (antifertility activity): active

More lines, main results first:

- IC50 [1]: 9 µM
Compound: CCCCCCCC(C)(O)CCN1C(=O)CC(=O)C1CCCCCCC(=O)OCC (stereo not shown) [Compound 64, 2-(6'-Ethoxycarbonyl-n-hexyl)-1-(3"-hydroxy-3"-methyl-n-decyl)-pyrrolidin-3,5-dione]
- ED50 [2]: 0.011 mg/kg
- protecting against histamine challenge [6]: very effective

- IC50 [1]: 4 µM
Compound: CCCCCCC(O)(CC)CCN1C(=O)CC(=O)C1CCCCCCC(=O)OCC (stereo not shown) [Compound 68, 2-(6'-Ethoxycarbonyl-n-hexyl)-1-(3"-hydroxy-3"-ethyl-n-nonyl)-pyrrolidin-3,5-dione]

- IC50 [1]: 147 µM
Compound: CCCCCC(O)CCN1C(=O)CC(O)C1CCCCCCC(=O)OCC (stereo not shown) [Compound 76, 2-(6'-ethoxycarbonyl-n-hexyl)-3-hydroxy-1-(3"-hydroxy-n-octyl)-pyrrolidin5-one]
- inhibition at 100 µM [9]: 79%

- IC50 [1]: 5.4 µM
Compound: CCCCCCC(O)CCN1C(=O)CC(=O)C1CCCCCCC(=O)OCC (stereo not shown) [Compound 77, 2-(6'-ethoxycarbonyl-n-hexyl)-1-(3"-hydroxyn-nonyl)-pyrrolidin-3,5-dione]
- ED50 [3]: 2.6 mg/kg
- ED50 [2]: 0.38 mg/kg
- % Depression at 1 mg/kg (arterial blood pressure): 30%

- IC50 [10]: 0.76 µg/mL (≈ 1.55 µM)
Compound: CCCCCC(CCN1C(=O)CCC(O)C1CCCCCCC(=O)OCC)OCc1ccccc1 (stereo not shown) [Compound 79]

- IC50 [10]: 3.1 µg/mL (≈ 7.39 µM)
Compound: CCOC(=O)CCCCCCC1C(O)CCC(=O)N1CCCOCc1ccccc1 (stereo not shown) [Compound 80]

- IC50 [10]: 0.17 µg/mL (≈ 0.357 µM)
Compound: CCCCCC(CCN1C(=O)CC(O)C1CCCCCCC(=O)OCC)OCc1ccccc1 (stereo not shown) [Compound 81]

- IC50 [1]: 55 µM
Compound: CCCCCCC(C)(O)CCN1C(=O)CC(O)C1CCCCCCC(=O)OCC (stereo not shown) [Compound 86]
- ED50 [2]: 0.505 mg/kg

- IC50 [10]: 2.15 µg/mL (≈ 5.38 µM)
Compound: CCCCCCC(O)CCN1C(=O)CC(O)C1CCCCCCC(=O)OCC (stereo not shown) [Compound 98]

- IC50 [10]: 1.55 µg/mL (≈ 4.76 µM)
Compound: CCCCCCCCN1C(=O)CCC(O)C1CCCCCCC (stereo not shown) [Compound 99, 2-n-Heptyl-3-hydroxy-1-n-octyl-piperidin-6-one]

- IC50 [10]: 0.35 µg/mL (≈ 0.963 µM)
Compound: OCCCCCCCC1C(O)CCCN1CCCOCc1ccccc1 (stereo not shown) [Compound 103]

- IC50 [10]: 0.11 µg/mL (≈ 0.254 µM)
Compound: CCCCCC(CCN1CCCC(O)C1CCCCCCCO)OCc1ccccc1 (stereo not shown) [Compound 104, 1-(3'-Benzyloxy-n-octyl)-3-hydroxy-2-(7"-hydroxy-n-heptyl)piperidine]
